The results in this text go back to patent US10316025B2, “Substituted piperazine compounds and methods of use and use thereof” (SUNSHINE LAKE PHARMA CO., LTD., priority 2015, dated 2019).

The pKi is −log10 of the Ki, conventionally taken in molar units. High values mean a low Ki, low ones a high Ki. One may read the AUC(0-inf) as total exposure, with the tail of the curve extrapolated. Read a high AUC(0-inf) as more exposure. Usually AUC(0-t) stands for exposure summed from dosing to a finite time, without extrapolation to infinity. By Cmax is commonly meant the highest concentration seen after dosing. What is called Tmax is the time from dosing to the highest level. The term half-life denotes the time needed for the level to fall by half in the phase considered. Read a low half-life as fast loss. By pIC50 is commonly meant −log10 of the IC50, conventionally taken in molar units.

pIC50, pKi: −log10 of the molar value.

In one data set the target is T1, 5-HT1A receptors (Homo sapiens, UniProt P08908).
T1 construct: host or cells: human HEK-293 cell homogenates
T1 sequence (P08908 1-422): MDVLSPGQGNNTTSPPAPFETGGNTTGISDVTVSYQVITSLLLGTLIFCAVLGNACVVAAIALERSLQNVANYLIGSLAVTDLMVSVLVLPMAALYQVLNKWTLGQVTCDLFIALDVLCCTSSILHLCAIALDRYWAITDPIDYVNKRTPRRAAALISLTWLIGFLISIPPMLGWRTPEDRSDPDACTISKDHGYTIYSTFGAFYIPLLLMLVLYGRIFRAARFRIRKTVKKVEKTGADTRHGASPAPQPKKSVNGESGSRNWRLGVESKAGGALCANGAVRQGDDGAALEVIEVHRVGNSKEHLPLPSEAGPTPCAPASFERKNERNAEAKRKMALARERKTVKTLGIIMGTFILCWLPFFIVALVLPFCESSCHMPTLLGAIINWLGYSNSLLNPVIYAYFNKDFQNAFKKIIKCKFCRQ
The experiment in a line: h5-HT1A binding affinity test ([3H]8-OH-DPAT, HEK-293 cell homogenates). The following applies: 0.3 nM [3H]8-OH-DPAT, 22°C, 60 min, Ki from IC50 by ChengPrusoff equation. On the procedure:
Human HEK-293 cell homogenates (36 μg of protein) were incubated at 22° C. for 60 minutes with 0.3 nM of [^3H]8-OH-DPAT (Perkin-Elmer) in the absence or presence of the test compound in a buffer solution containing 50 mM of Tris-HCl (pH 7.4), 10 mM of MgSO4, 0.5 mM of EDTA and 2 μg/mL aprotinine.
The non-specific binding value was determined by incubating the same mixture in the presence of 10 μM of 8-OH-DPAT, which was used as the standard reference compound. Competitive curve was obtained by testing data of 8-OH-DPAT in each experiment at several concentrations.
The incubated samples were filtered fastly using a 96-sample cell harvester (Unifilter, Packard) through fiberglass filter membranes (GF/B, Packard) pre-soaked with 0.3% PEI in vacuo, and washed several times with an ice cold 50 mM of Tris-HCl. The filter membranes were dried and the retained radioactivity was measured in a scintillation counter (Topcount, Packard) using a scintillation cocktail (Microscint 0, Packard). The experimental results were expressed as inhibition percentage of radioactive ligand specific binding relative to control groups.
The experiments of combining [^3H]8-OH-DPAT (0.3 nM) with 5-HT1A receptors of human HEK-293 cells were accomplished by using Scintillation Proximity Assay on membrane. The test compounds were required to be tested at least three times in the case of a concentration of more than 6 log, and the data were analyzed by the method of nonlinear regression using Hill equation curve to obtain an IC50 value, and then the IC50 value was calculated by ChengPrusoff equation to obtain a Ki value.

Data set [1] is described as follows: Pharmacokinetic evaluation in rats after intravenous or gavage administration. It is filed as in vivo, SD rats. The following applies: for AUC(0-inf) / AUC(0-t) / Cmax / Tmax / clearance / half-life / Vd: SD, rat, plasma; for Vd: read-out: Vss. On the procedure: The pharmacokinetic evaluation of the compound disclosed herein in rats, dogs and monkeys was carried out in this invention, and animal information as described in Table 1.
The compounds disclosed herein were administered in form of a saline solution containing 5% DMSO, 5% Kolliphor HS 15, 2% (2% HCl) and 88% Saline, or a physiological saline solution containing 10% DMSO, 10% Kolliphor HS 15 and 80% physiological saline to an animal subject. The animals of the intravenous administration group were administered at a dose of 1 mg/kg, and 0.3 mL of vein blood samples were collected at the time points of 0, 0.083, 0.25, 0.5, 1.0, 2.0, 5.0, 7.0 and 24 h after drug administration, then each blood sample was processed to separate plasma by centrifugation at 3000 rpm or 4000 rpm for 10 minutes, and the plasma samples were collected and stored at −20° C. or −70° C. The animals of the gavage administration group were administered at a dose of 2.5 mg/kg, and 0.3 mL of vein blood samples were collected at the time points of 0, 0.083, 0.25, 0.5, 1.0, 2.0, 5.0, 7.0 and 24 h after drug administration, then each blood sample was processed to separate plasma by centrifugation at 3000 rpm or 4000 rpm for 10 minutes, and the plasma samples were collected and stored at −20° C. or −70° C.
The above plasma was analyzed by the LC/MS/MS system.
The LC/MS/MS system for the analysis comprises an Agilent 1200 Series Vacuum Degasser, binary syringe pumps, a well-plate autosampler, a column oven and an Agilent G6430A Triple Quadrupole Mass Spectrometer equiped with an electrospray ionization (ESI) source.
Analysis was performed on waters XBridge C18 (2.1×50 mm, […] column, and 5 μL of sample was injected). Conditions of the analysis comprise: a mobile phase consisting of mobile phase A (water, 2 mM ammonium formate and 0.1% formic acid) and mobile phase B (methanol, 2 mM ammonium formate and 0.1% formic acid). A flow rate of 0.4 mL/min.

Data set [2] deals with T2, human 5-HT transporters (SERT) (Homo sapiens, UniProt P31645).
T2 construct: expressed in transfected cells; host or cells: CHO cells (membrane homogenate)
The experiment in a line: Affinity to CHO cells-transfected human-derived 5-HT transporter ([3H]imipramine binding). The following applies: 2 nM [3H]imipramine, CHO cell membrane homogenate, 22°C, 60 min. On the procedure: To a mixed system of cell membrane homogenate protein (12 μg), 2 nM of [^3H] imipramine and buffer solution (50 mM of Tris-HCl (pH 7.4), 120 mM of NaCl, 0.5 mM of KCl and 0.1% BSA) was added or not added the test compound at 22° C., and then the resulting mixture was incubated for 60 minutes.
To the mixed system mentioned above was added 10 μM of imipramine for measuring nonspecific binding values.
After incubation, the samples were filtered rapidly in vacuo with a 96-sample cell harvester (Unifilter, Packard) through glass-fiber filters (GF/B, Packard) pre-soaked with 0.3% PEI and rinsed several times with an ice-cold 50 mM of Tris-HCl and 150 mM of NaCl. The filters were dried and the retained radioactivity was measured by means of a scintillation counter (Topcount, Packard) using a scintillation cocktail (Microscint O, Packard). Each experimental result was expressed as a percentage inhibition of radioactive ligand specific binding relative to control groups.
The standard reference compound was imipramine, and ICso values were calculated by the competitive curve obtained from a series of concentrations of the experimental test. The experimental results of the affinity of the compounds disclosed herein to human 5-HT transporters (SERT) were listed in Table A.

T2 sequence (P31645 whole entry): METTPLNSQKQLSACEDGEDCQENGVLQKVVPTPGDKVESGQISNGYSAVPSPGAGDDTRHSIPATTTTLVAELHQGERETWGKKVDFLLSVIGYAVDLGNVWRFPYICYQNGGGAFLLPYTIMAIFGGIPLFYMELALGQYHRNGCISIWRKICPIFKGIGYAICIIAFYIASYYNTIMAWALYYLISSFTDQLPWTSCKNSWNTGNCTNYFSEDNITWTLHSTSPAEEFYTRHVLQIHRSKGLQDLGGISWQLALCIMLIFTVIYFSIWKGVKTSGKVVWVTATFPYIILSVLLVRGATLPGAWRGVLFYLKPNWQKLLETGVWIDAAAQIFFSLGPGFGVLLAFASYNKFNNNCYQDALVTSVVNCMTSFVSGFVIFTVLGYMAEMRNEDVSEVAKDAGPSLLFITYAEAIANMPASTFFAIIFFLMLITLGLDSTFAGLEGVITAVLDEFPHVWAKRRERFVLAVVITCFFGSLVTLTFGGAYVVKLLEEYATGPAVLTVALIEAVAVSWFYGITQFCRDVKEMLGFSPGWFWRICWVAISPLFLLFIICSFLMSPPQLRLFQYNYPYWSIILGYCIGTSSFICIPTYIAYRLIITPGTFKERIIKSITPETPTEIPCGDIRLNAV

In the case of `N#Cc1ccc2[nH]cc(CCCN3CCN(c4ncc(-c5cccc(C(N)=O)c5)cn4)CC3)c2c1` [Example 2, 3-(2-(4-(3-(5-cyano-1H-indol-3-yl)propyl)piperazin-1-yl)pyrimidin-5-yl) benzamide], on 5-HT1A receptors, the pKi was 8.92. In data set [1] (iv, 1 mg/kg), the AUC(0-inf) came to 753 ng·h/mL, the AUC(0-t) was determined as 722 ng·h/mL, the peak level (Cmax) was 409 ng/mL and the Tmax is 0.083 h. In data set [1] (iv, 1 mg/kg), the clearance worked out at 22.9 mL/min/kg, the half-life is 1.59 h and the Vd was 2.33 L/kg. In addition, in data set [1] (po, 2.5 mg/kg), the AUC(0-inf) was found to be 767 ng·h/mL, the AUC(0-t) came out at 706 ng·h/mL, the Cmax turned out to be 241 ng/mL and the Tmax stood at 0.833 h. In data set [1] (po, 2.5 mg/kg), this compound gave a half-life of 1.95 h and an F of 39.2%. Also, the pIC50 in data set [2] is 9.46.

Consider `N#Cc1ccc2[nH]cc(CCCN3CCN(c4ncc(-c5ccc(F)cc5F)cn4)CC3)c2c1` [Example 14, 3-(3-(4-(5-(2,4-difluorophenyl)pyrimidin-2-yl)piperazin-1-yl)propyl)-1H-indole-5-carbonitrile], for which the pKi at 5-HT1A receptors was 9.04. For the same compound, in data set [1] (iv, 1 mg/kg), the AUC(0-inf) is 1500 ng·h/mL, the AUC(0-t) is 1340 ng·h/mL, the Cmax was 193 ng/mL and the Tmax worked out at 0.25 h. Also, in data set [1] (iv, 1 mg/kg), the clearance was found to be 11.6 mL/min/kg, the half-life is 7.53 h and the Vd was 6.41 L/kg. Also, in data set [1] (po, 2.5 mg/kg), the AUC(0-inf) amounted to 3130 ng·h/mL, the exposure AUC(0-t) came out at 2790 ng·h/mL, the Cmax worked out at 180 ng/mL and the Tmax came to 5 h. In data set [1] (po, 2.5 mg/kg), this compound had a half-life of 7.28 h and an F of 83.28%. In data set [2], this compound gave a pIC50 of 9.24.
